# Entries after “also recorded” stand apart in the source; their conditions may differ.
# Columns and labels:
# [1] = target: T1, proMMP-9 / CI (Homo sapiens, UniProt P14780); experiment: SPR, competition of proMMP-9 binding to CI, MMP activity buffer; conditions: proMMP-9 (25-150 nM), 10-fold molar excess
# T1 construct: prodomain-containing proMMP-2 or proMMP-9; purchased Invitek
# Method: (§1) Sensor chip preparations and SPR measurements were performed using a BiacoreX device and the Bia-evaluation software (version 3.2; Biacore, Uppsala, Sweden). The pepsin-resistant triple-helical part of human fibrillar CI (100 μg/ml) in 10 mM acetate coupling buffer, pH 4.8, was immobilized to a dextran matrix-sensor chip at a flow rate of 5 μl/min, resulting in 5,500 resonance units from CI covalently linked via its primary amino groups. The control flow cell was prepared using the coupling buffer without CI. Surfaces were activated and blocked as described previously. […] The effects of (GPO)10, GAP, (POG)5, (GPP)10 and P33-42 on MMP-2 and MMP-9 binding to CI and their enzymatic activity were determined by adding the binding competitors to the (pro- and act)MMP-2 and MMP-9 solution in 10- to 150-fold molar excesses. Effects independent of MMP-2 and MMP-9 activity were monitored in the presence of Ro 28-2653 (1 μM) during SPR analysis. […] Kinetic parameters were analyzed using the 1:1 binding model with drifting baseline and subtraction of the control flow cell binding from sensorgrams obtained with immobilized CI. Binding constants (Kd) were calculated from the association (ka) and dissociation rates (kd) obtained from individual binding curves at different concentrations. […]
# [2] = target: T2, proMMP-2 / CI (Homo sapiens, UniProt P08253); experiment: SPR, competition of proMMP-2 binding to CI, MMP activity buffer; conditions: proMMP-2 (25-150 nM), 10-fold molar excess, no inhibitor
# T2 construct: prodomain-containing proMMP-2 or proMMP-9; purchased Invitek
# T2 sequence (P08253 30-660 limits assumed): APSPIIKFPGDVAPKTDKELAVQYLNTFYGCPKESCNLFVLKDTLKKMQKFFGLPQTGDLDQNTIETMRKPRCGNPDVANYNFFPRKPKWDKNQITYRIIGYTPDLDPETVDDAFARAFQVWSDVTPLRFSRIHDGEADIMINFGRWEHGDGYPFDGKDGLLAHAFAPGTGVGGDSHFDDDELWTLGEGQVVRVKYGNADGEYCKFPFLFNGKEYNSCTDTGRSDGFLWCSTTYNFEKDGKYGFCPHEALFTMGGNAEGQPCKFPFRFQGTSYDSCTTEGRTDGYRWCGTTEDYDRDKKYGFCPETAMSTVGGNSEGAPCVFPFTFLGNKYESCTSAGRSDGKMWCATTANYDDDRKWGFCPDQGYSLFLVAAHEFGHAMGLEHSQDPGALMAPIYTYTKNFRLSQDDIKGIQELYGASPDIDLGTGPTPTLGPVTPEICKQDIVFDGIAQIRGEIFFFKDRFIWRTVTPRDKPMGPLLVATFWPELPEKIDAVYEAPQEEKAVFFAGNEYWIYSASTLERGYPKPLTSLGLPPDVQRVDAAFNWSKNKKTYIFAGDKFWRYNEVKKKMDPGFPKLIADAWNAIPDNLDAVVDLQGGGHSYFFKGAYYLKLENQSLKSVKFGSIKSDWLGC
# Method: as §1
# [3] = target: T3, actMMP-2 / CI (Homo sapiens, UniProt P08253); experiment: SPR, competition of actMMP-2 binding to CI, MMP activity buffer with Ro 28-2653; conditions: actMMP-2 100 nM, 1 μM Ro 28-2653, 25°C, mean ± SD, at least three experiments
# T3 construct: purchased Invitek
# T3 sequence (P08253 110-660): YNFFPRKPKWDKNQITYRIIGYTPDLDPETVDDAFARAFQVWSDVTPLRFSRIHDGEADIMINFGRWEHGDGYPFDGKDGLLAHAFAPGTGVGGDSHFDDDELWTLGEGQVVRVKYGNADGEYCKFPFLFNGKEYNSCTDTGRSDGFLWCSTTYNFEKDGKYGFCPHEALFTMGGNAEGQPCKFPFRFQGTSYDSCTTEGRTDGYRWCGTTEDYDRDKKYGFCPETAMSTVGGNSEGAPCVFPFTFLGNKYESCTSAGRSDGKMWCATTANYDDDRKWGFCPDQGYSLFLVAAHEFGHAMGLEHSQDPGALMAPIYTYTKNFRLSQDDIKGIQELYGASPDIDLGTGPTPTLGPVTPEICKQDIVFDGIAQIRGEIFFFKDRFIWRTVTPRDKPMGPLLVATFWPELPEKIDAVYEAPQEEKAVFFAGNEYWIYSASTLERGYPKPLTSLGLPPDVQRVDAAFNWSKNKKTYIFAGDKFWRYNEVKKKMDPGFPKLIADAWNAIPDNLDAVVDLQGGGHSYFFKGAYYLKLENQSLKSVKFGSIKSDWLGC
# Method: as §1
# [4] = test system: ProMMP-2; experiment: Substrate gel zymography of treated proMMP-2; format: biochemical, human; conditions: 50 ng proMMP-2, 2-h incubation at room temperature
# Method: Samples containing MMP-2 were diluted with zymogram sample buffer (Bio-Rad, Munich, Germany) and separated on homogeneous 10% SDS-PAGE gels containing 1 mg/ml (wt/vol) gelatine (Bio-Rad), washed with excess MMP activity buffer containing 2.5% (vol/vol) Triton X-100 to remove SDS, and incubated with MMP activity buffer for 24 h. Gels were stained with Coomassie Blue R-250. Gels showing proteolytic bands corresponding to proMMP-2 (72 kDa) or actMMP-2 (62 kDa) were scanned (Plustek, Norderstedt, Germany) and analyzed from inverted grayscale images.
# T1 sequence (P14780 20-707 limits assumed): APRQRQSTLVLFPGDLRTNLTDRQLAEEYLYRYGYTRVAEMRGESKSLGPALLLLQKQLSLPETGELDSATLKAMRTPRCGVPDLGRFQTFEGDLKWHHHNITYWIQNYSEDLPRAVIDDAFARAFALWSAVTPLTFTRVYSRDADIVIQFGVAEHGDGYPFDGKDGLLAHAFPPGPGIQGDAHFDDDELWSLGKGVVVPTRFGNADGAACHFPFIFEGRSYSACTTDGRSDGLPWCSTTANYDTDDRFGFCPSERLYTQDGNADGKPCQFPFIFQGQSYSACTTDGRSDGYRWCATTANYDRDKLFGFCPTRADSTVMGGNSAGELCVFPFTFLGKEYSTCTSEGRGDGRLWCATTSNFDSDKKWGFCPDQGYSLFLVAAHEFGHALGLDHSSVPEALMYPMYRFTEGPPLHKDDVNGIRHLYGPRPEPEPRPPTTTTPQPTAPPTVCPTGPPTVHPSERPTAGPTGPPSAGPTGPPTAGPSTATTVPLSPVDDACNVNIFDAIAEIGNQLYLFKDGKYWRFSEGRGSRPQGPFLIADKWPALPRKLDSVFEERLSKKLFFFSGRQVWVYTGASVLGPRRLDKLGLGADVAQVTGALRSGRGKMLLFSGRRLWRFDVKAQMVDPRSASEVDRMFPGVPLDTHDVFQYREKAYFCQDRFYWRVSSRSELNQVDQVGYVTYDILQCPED
substance,measurement,setting,value
"H-Gly-Cys-Hyp-(Gly-Pro-Hyp)10-Gly-Cys-Hyp-Gly-NH2 [(GPO)10, triple-helical Hyp-containing collagen analog]",effect on binding to CI,[1],abolished binding of proMMP-9 to CI
same,effect on SPR signal on CI,[2],reduction in resonance units below baseline levels
same,Kd for binding to CI in the presence of 10-fold molar excess of competitor,[3],"2,710.0 ± 90.0 nM"
same,"substrate zymography, prodomain-free actMMP-2 band",[4],faint band of prodomain-free actMMP-2; also recorded: not accompanied by strong prodomain cleavage

# — publication PMC3024946, “Hydroxyproline-containing collagen analogs trigger the release and activation of collagen-sequestered proMMP-2 by competition with prodomain-derived peptide P33-42” (Fibrogenesis & Tissue Repair, 2011)
